# Assay results as given in patent publication US20230094076A1, “COMBINATION THERAPY” (GlaxoSmithKline Intellectual Property Development Limited, priority 2016, published 2023).
# Tests used:
# TF-1 = conditions: TF-1, AML subtype M6, 6-day
# Procedure: (§1) The growth of all cell lines was evaluated over time across a wide range of seeding densities to identify conditions that permitted proliferation throughout the entire 6-day assay. Cells were plated at the optimal seeding density and after overnight incubation, a 20-point 2-fold titration of compound was added and plates were incubated for 6 days. A replicate plate of cells was harvested at the time of compound addition to quantify the starting number of cells (T0). Values obtained after the 6 day treatment were expressed as a function of the T0 value and plotted against compound concentration. The T0 value was normalized to 100% and represents the number of cells at the time of compound addition. The data were fit with a 4 parameter equation to generate a concentration response curve and the growth IC50 (gIC50) was determined. The gIC50 is the midpoint of the ‘growth window’, the difference between the number of cells at the time of compound addition (To) and the number of cells after 6 days (DMSO control). The growth-death assay can be used to quantify the net population change, clearly defining cell death (cytotoxicity) as fewer cells compared to the number at the time of compound addition (T0).
# SK-NEP-1 = conditions: SK-NEP-1, Wilm's, 6-day
# Procedure: as §1
# CAKI-1 = conditions: CAKI-1, ccRCC, 6-day
# Procedure: as §1
# 786-O = conditions: ccRCC, 6-day
# Procedure: as §1
# Melanoma cell lines = conditions: 7 cell lines
# Procedure: as §1
# Lymphoma cell lines = conditions: 59 cell lines
# Procedure: as §1
# CAKI-2 = conditions: CAKI-2, ccRCC, 6-day
# Procedure: as §1
# G-402 = conditions: G-402, Leiomyoblastoma, 6-day
# Procedure: as §1
# Kidney cancer cell lines = conditions: percent of cell lines, 10 cell lines
# Procedure: as §1
# AML cell lines = conditions: 10 cell lines
# Procedure: as §1
# KASUMI- = conditions: AML subtype M2, 6-day
# Procedure: as §1
# IGR-1 = conditions: IGR-1, melanoma, 6-day
# Procedure: as §1
# SK-MEL-2 = conditions: SK-MEL-2, melanoma, 6-day
# Procedure: as §1
# Breast cancer cell lines = conditions: percent of cell lines, 29 cell lines
# Procedure: as §1
# OCI- = conditions: AML subtype M4, 6-day
# Procedure: as §1
# COLO741 = conditions: COLO741, melanoma, 6-day
# Procedure: as §1
# ACHN = conditions: ccRCC, 6-day
# Procedure: as §1
# 769-P = conditions: ccRCC, 6-day
# Procedure: as §1
# MOLM-13 = conditions: MOLM-13, AML subtype M5, 6-day
# Procedure: as §1
# A498 = conditions: A498, ccRCC, 6-day
# Procedure: as §1
# HL-60 = conditions: HL-60, AML subtype M3, 6-day
# Procedure: as §1
# A375 = conditions: A375, melanoma, 6-day
# Procedure: as §1
# [1] = test system: 196 human cancer cell lines (Total); conditions: percent of cell lines, 196 cell lines
# Procedure: as §1
# SK-MEL-5 = conditions: SK-MEL-5, melanoma, 6-day
# Procedure: as §1
# [2] = test system: Bladder cancer cell lines; conditions: 18 cell lines
# Procedure: as §1
# MOLM-16 = conditions: MOLM-16, AML subtype M0, 6-day
# Procedure: as §1
# ccRCC cell lines = conditions: only at highest concentration
# [3] = test system: arginine methylation (ADMA, MMA, SDMA) in Toledo cells; experiment: Durability of arginine methylation changes after compound washout (western); format: cell-based, human; conditions: 0.4 μM for 72 hours, then washout
# Procedure: (A) Stability of changes to ADMA. […] (B) Representative western blots of arginine methylation marks. Regions quantified for (A) are denoted by black bars on the side of the gel.
# Cells were then washed, cultured in Compound A-free media, samples were collected daily through 120 hours, and arginine methylation levels were examined by western analysis. […] SDMA appeared to continue to increase even after 6 hours of washout. This is consistent with the continued increase observed through 120 hours without any obvious plateau (FIG. 12) coupled with the durable increase in MMA that has not yet returned to baseline after washout. Durability of each modification generally reflected the kinetics of arginine methylation changes brought about by Compound A, with MMA being the most rapid.
# PRMT6 = PRMT6 (Homo sapiens, UniProt Q96LA8); experiment: PRMT family radioactive assay; format: biochemical
# PRMT6, sequence (Q96LA8 whole entry): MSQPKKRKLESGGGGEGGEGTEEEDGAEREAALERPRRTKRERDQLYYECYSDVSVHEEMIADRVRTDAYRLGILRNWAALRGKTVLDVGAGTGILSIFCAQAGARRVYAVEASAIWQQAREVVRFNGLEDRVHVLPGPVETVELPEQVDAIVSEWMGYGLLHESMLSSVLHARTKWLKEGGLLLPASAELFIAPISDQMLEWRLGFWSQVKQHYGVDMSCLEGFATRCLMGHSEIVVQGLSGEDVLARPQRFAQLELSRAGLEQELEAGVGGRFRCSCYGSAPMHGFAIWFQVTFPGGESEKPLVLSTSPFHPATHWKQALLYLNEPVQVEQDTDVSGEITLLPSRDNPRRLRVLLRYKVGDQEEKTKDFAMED
compound,measurement,setting,value
CCOCC1(COCC)CCC(c2n[nH]cc2CN(C)CCNC)CC1 [Compound A],gIC100,TF-1,29.33 ± 0.00 µM
same,Ymin − T0,TF-1; negative = cell death,788.1
same,Ymin − T0,SK-NEP-1,25.3
same,Ymin − T0,CAKI-1,178.7
same,Ymin − T0,786-O,643.7
same,Median gIC100,Melanoma cell lines; 6-day proliferation,29.33 µM
same,% Cytotoxic,Melanoma cell lines; percent of cell lines,0%
same,% gIC100 < 2,Melanoma cell lines; percent of cell lines,0%
same,Median gIC100,Lymphoma cell lines; 6-day proliferation,21.62 µM
same,% Cytotoxic,Lymphoma cell lines; percent of cell lines,54%
same,% gIC100 < 2,Lymphoma cell lines; percent of cell lines,14%
same,Ymin − T0,CAKI-2,169.6
same,Ymin − T0,G-402,92.6
same,% Cytotoxic,Kidney cancer cell lines,0%
same,% gIC100 < 2,Kidney cancer cell lines,0%
same,number of cell lines with induced cytotoxicity,AML cell lines; 6-day proliferation assay,5
same,% Cytotoxic,AML cell lines; percent of cell lines,50%
same,% gIC100 < 2,AML cell lines; percent of cell lines,0%
same,gIC100,KASUMI-,18.88 ± 10.55 µM
same,Ymin − T0,KASUMI-; negative = cell death,−17.7
same,Ymin − T0,IGR-1,507.0
same,gIC100,IGR-1,29.33 ± 0.00 µM
same,Ymin − T0,SK-MEL-2,35.9
same,gIC100,SK-MEL-2,22.37 µM
same,% Cytotoxic,Breast cancer cell lines,10%
same,% gIC100 < 2,Breast cancer cell lines,0%
same,gIC100,OCI-,29.33 ± 0.00 µM
same,Ymin − T0,OCI-; negative = cell death,523.2
same,Ymin − T0,COLO741,12.5
same,gIC100,COLO741,28.55 ± 1.40 µM
same,Ymin − T0,ACHN,96.5
same,Ymin − T0,769-P,119.0
same,gIC100,MOLM-13,8.64 ± 0.39 µM
same,Ymin − T0,MOLM-13; negative = cell death,−100.0
same,Ymin − T0,A498,313.4
same,gIC100,HL-60,6.38 ± 12.83 µM
same,Ymin − T0,HL-60; negative = cell death,−33.4
same,Ymin − T0,A375,91.9
same,gIC100,A375,29.33 ± 0.00 µM
same,% gIC100 < 2,[1],4%
same,Ymin − T0,SK-MEL-5,31.8
same,gIC100,SK-MEL-5,27.09 ± 3.92 µM
same,Median gIC100,[2]; 6-day proliferation,29.33 µM
same,% Cytotoxic,[2]; percent of cell lines,0%
same,% gIC100 < 2,[2]; percent of cell lines,0%
same,gIC100,MOLM-16,9.69 ± 10.58 µM
same,Ymin − T0,MOLM-16; negative = cell death,−68.6
same,concentration at which caspase cleavage occurred,ccRCC cell lines,30 µM
same,time for ADMA to return to baseline after washout,[3],≤ 24 h
same,time for MMA to return to baseline after washout,[3],≤ 24 h
same,time for SDMA to return to baseline after washout,[3],≤ 96 h
same,inhibition of activity,PRMT6; 60 minute SAM:Enzyme:Compound A preincubation,inhibited the activity
same,time dependence of inhibition,PRMT6; increasing preincubation times,time dependent inhibitor
